Laboratory results as given in ChEMBL document CHEMBL3817755, “Design, synthesis and biological evaluation of indazolepyrimidine based derivatives as anticancer agents with anti-angiogenic and antiproliferative activities” (Medchemcomm, 2016).

How the values were obtained:
NCI-H322M = experiment: Growth inhibition of human NCI-H322M cells after 48 hrs by SRB assay; format: functional
[1] = Growth inhibition of human SF539 cells after 48 hrs by SRB assay; format: functional; conditions: SF-539, 48 h
[2] = Growth inhibition of human SNB19 cells after 48 hrs by SRB assay; format: functional; conditions: SNB-19, 48 h
Malme-3M = experiment: Growth inhibition of human MALME-3M cells after 48 hrs by SRB assay; format: functional
SK-MEL-28 = experiment: Growth inhibition of human SK-MEL-28 cells after 48 hrs by SRB assay; format: functional; conditions: SK-MEL-28, 48 h, read-out: LC50 (the source's name)
[3] = Growth inhibition of human UACC62 cells after 48 hrs by SRB assay; format: functional; conditions: UACC-62, 48 h
[4] = Growth inhibition of human IGROV1 cells after 48 hrs by SRB assay; format: functional; conditions: IGROV-1, 48 h
[5] = Growth inhibition of human OVCAR5 cells after 48 hrs by SRB assay; format: functional; conditions: OVCAR-5, 48 h
ACHN = experiment: Growth inhibition of human ACHN cells after 48 hrs by SRB assay; format: functional
SN12C = experiment: Growth inhibition of human SN12C cells after 48 hrs by SRB assay; format: functional
[6] = Growth inhibition of human UO31 cells after 48 hrs by SRB assay; format: functional; conditions: UO-31, 48 h
MDA-MB-231 = experiment: Growth inhibition of human MDA-MB-231 cells after 48 hrs by SRB assay; format: functional; conditions: MDA-MB-231, 48 h
[7] = Cytotoxicity against human PC3 cells after 72 hrs by SRB assay; conditions: PC-3, 72 h
[8] = Antiangiogenic activity in human PC3 cells assessed as reduction in TGF-beta levels at […] +/- […] uM after 72 hrs by ELISA relative to control; format: functional, PC-3; set-up: scale not given: the % may be the effect or the level left
[9] = Antiangiogenic activity in human PC3 cells assessed as reduction in TNF-alpha levels at […] +/- […] uM after 72 hrs by ELISA relative to control; format: functional, PC-3; set-up: scale not given: the % may be the effect or the level left
[10] = Antiangiogenic activity in human PC3 cells assessed as reduction in IGF-1 levels at […] +/- […] uM after 72 hrs by ELISA relative to control; format: functional, PC-3; set-up: scale not given: the % may be the effect or the level left
[11] = Antiangiogenic activity in human PC3 cells assessed as reduction in FGF-beta levels at […] +/- […] uM after 72 hrs by ELISA relative to control; format: functional, PC-3; set-up: scale not given: the % may be the effect or the level left
[12] = Antiangiogenic activity in human PC3 cells assessed as reduction in leptin levels at […] +/- […] uM after 72 hrs by ELISA relative to control; format: functional, PC-3; set-up: scale not given: the % may be the effect or the level left
[13] = Solubility of the compound; format: physicochemical
[14] = read-out: LC50 (the source's name)

## COc1ccc(Nc2nccc(Nc3ccc4[nH]ncc4c3)n2)cc1
NCI-H322M
  GI50: 4.48 µM
  TGI: 38.2 µM
NCI-H322M; [14]
  CC50: > 100 µM
[1]
  GI50: 4.38 µM
  TGI: 16.8 µM
[1]; [14]
  CC50: 51.3 µM
[2]
  GI50: 4.3 µM
  TGI: 87 µM
[2]; [14]
  CC50: > 100 µM
Malme-3M
  GI50: 3.27 µM
  TGI: 15.9 µM
Malme-3M; [14]
  CC50: > 100 µM
SK-MEL-28
  CC50: > 100 µM
[3]
  GI50: 1.93 µM
  TGI: 16.9 µM
[3]; [14]
  CC50: > 100 µM
[4]
  GI50: 3.36 µM
  TGI: 25.1 µM
[4]; [14]
  CC50: > 100 µM
[5]
  GI50: 3.33 µM
  TGI: > 100 µM
[5]; [14]
  CC50: > 100 µM
ACHN
  GI50: 2.89 µM
  TGI: 11.7 µM
ACHN; [14]
  CC50: 45 µM
SN12C
  GI50: 3.92 µM
  TGI: > 100 µM
SN12C; [14]
  CC50: > 100 µM
[6]
  GI50: 2.12 µM
  TGI: 11.4 µM
[6]; [14]
  CC50: 33.8 µM
MDA-MB-231
  GI50: 2.69 µM
  TGI: 5.36 µM
MDA-MB-231; [14]
  CC50: > 100 µM

## NS(=O)(=O)c1ccc(Nc2nccc(Nc3ccc4[nH]ncc4c3)n2)cc1
[7]
  IC50: 33.8 µM
[8]
  Activity: 32.2%
[9]
  Activity: 36%
[10]
  Activity: 39.5%
[11]
  Activity: 28.4%
[12]
  Activity: 24.5%
[13]
  solubility: Insoluble
